Read-outs that look alike come from different tables or passages of the source.
How the values were obtained:
DENV1 = experiment: Plaque assay of released virus, DENV1-infected Vero cells; assay type: cell-based; details: Dengue virus
Method: (§1) Vero cells were infected with DENV1-4 at an MOI of 1 for 2 h (post infection, p.i., (A)), after which virus was removed, and fresh maintenance medium containing 2% FCS together with the indicated concentration of C10 added. For co-treat condition (c.t., (B)), Vero cells were infected with DENV1-4 at an MOI of 1 in the presence of C10 for 2 h, followed by removal of the virus/C10 inoculums, and addition of fresh 2% fetal calf serum maintenance medium. […] Results represent the mean ±SD for duplicate wells from a single assay, representative of 2 independent experiments (cf. Tables 2A and 2B, infra, for pooled data).
Vero and BHK-21 cells were maintained in DMEM media supplemented with 10% heat-inactivated FBS at 37° C. in a humidified incubator supplemented with 5% CO2; A549 cells were maintained in F-12K medium supplemented with 10% heat-inactivated Fetal Bovine Serum (FBS), 2 mM L-glutamine, 50 U/I penicillin, 0.05 mg/l streptomycin. […] Viral titer was subsequently determined by plaque assay (see below).
Vero cells were seeded into 24-well plates at a density of 2×10^5 cells/well and grown overnight in culture medium at 37° C. with 5% CO2 prior to infection with RSV, KUNV, ZIKV as indicated. […] The stain was removed by rinsing the cells with tap water, and the viral plaques were counted visually. […]

MeV = experiment: IC50 in established virological assays (Table 1), MeV; assay type: cell-based, Measles morbillivirus
Method: (§2) In summary, a set of C10 derivatives (FIG. 12) was designed, synthesized and tested against HCV (which is considered as an established system to monitor drug effects against Flaviviridae) as well as DENV for comprehensive structure-activity relationship (SAR) analysis and target validation. IC50 and CC50 values for compound C10 were determined in established virological assays (Table 1). […] Further, said experiments underline the specificity of compound C10 for flaviviruses.

[1] = Solubilization in dosing vehicle recipes; assay type: physicochemical
Method: The compound was assessed for solubilization in 5 different vehicle recipes: • 1. Physiological saline (0.9% NaCl solution in water) • 2. Kolliphor HS—physiological saline (20%:80%) • 3. DMSO-PEG400—physiological saline (20%:50%:30%) • 4. PEG400—5% dextrose in water (75%:25%) • 5. DMSO-Cremophor EL—5% Mannitol (10%:10%:80%)
To prepare the formulation using the DMSO-PEG400 —physiological saline (20%:50%:30%) recipe, the compound was first supplemented with the calculated volume of DMSO, vortexed for 1 minute and sonicated for 2 minutes at 40° C. Next, PEG400 and physiological saline were added. The final mixture was vortexed and sonicated for 2 minutes at 40° C. The working formulations batch was prepared for 1 h prior to the in vivo study.

[2] = tested on: hematopoietic stem cell formation; experiment: Effect on zebrafish hematopoietic stem cell formation (in situ runx-1+c-myb); assay type: in vivo; details: 36 hpf
Method: Zebrafish embryos were exposed 20-30 min after fertilization to differing concentrations of the compounds C10 and D1 (5 μM; 15 μM; 25 μM) or to medium containing the corresponding solvent (DMSO) concentration. Therefore, 3-5 embryos were sorted into each of three wells of a 96 well plate containing 200 μl of medium. For phenotype analysis, triplicates were imaged after 6-7 h post fertilization (hpf) at approximately shield stage, after 24 hpf and after 48 hpf. Dead +unfertilized embryos were removed. For imaging at 24 hpf +48 hpf; embryos were anesthetized using MESAB. (A) Diagramm showing the percentage of embryos at each time point either developing normal (blue color) or with the indicated phenotype. (B) representative images of embryos treated with the indicated compounds, or controls at the respective time points. (C) To additionally elucidate the influence on hematopoietic stem cell formation, approx. half of the embryos were sampled at 36 hpf and an in situ staining for runx-1+c-myb was performed. Shown are representative images of hematopoietic stem cell formation with the treatment indicated.
Embryos were exposed 20-30 min after fertilization to differing concentrations of the compounds C10 and D1 (5 μM; 15 μM; 25 μM) or to medium containing the corresponding solvent (DMSO) concentration. […]

ZIKV = experiment: RT-qPCR analysis of virus genomes, ZIKV; assay type: cell-based; details: Zika virus
Method: as §1, with “ZIKV” for “DENV1-4”, “infection),” for “infection, p.i., (A)),”, “condition,” for “condition (c.t., (B)),”, “assay (cf. Table” for “assay, representative of”, “2” for “2 independent experiments (cf. Tables 2A and 2B, infra,”
Viral RNA was extracted using Isolate II RNA extraction kit (Bioline), and the absolute number of RNA copies determined by Taqman One Step RT-qPCR (Applied Biosystems) by extrapolation from a standard curve generated from in vitro—transcribed virus RNA.
It was decided to test the ability of C10 to inhibit the flaviviruses DENV1-4, KUNV and ZIKV, in addition to the paramyxovirus RSV, as a control.

HCV = experiment: IC50 in established virological assays (Table 1), HCV; assay type: cell-based, Hepatitis C virus
Method: as §2

In the case of `CCN1/C(=C\C=C\c2sc3cc(NC(C)=O)ccc3[n+]2CC)Sc2cc(NC(C)=O)ccc21.[I-]` [C10, 6-acetamido-2-((1E,3E)-3-(6-acetamido-3-ethylbenzo[d]thiazol-2(3H)-ylidene)prop-1-en-1-yl)-3-ethylbenzo[d]thiazol-3-ium iodide], the EC50 (DENV1; read-out: EC50 from plaque assays, DENV1, c.t. (co-treat)) is reported as 0.04 µM, the EC50 (DENV1; read-out: EC50 from plaque assays, DENV1, p.i. (post infection)) is reported as 0.11 µM and the “activity against Measles morbillivirus (MeV)” value (MeV) is reported as “inactive or has only minor activity”. For the same molecule, the IC50 (MeV; Measles morbillivirus, MeV) was over 10 µM, the solubility ([1]; 5 vehicle recipes) was “very low solubility” and the “concentration of full dissolution” value ([1]; only in DMSO-PEG400-physiological saline (20%:50%:30%)) was 1000 µg/mL. The “hematopoietic stem cell formation” value [2] was “no difference to the WT embryos”, the EC50 (ZIKV; read-out: EC50 from RT-qPCR analysis, ZIKV, c.t.) was 0.44 µM and the EC50 (ZIKV; read-out: EC50 from RT-qPCR analysis, ZIKV, p.i.) was 1.13 ± 1.1 µM. It also gave an IC50 (HCV) of 0.18 µM and an IC50 (HCV; Hepatitis C virus) of about 0.2 µM.

From patent US12527773B2, “Flavi-block: a pan-flavivirus inhibitor” (Baden-Württemberg Stiftung GmbH, priority 2020, dated 2026)
